In DBAASP one finds MIC data, which are given here for seven molecules.

What is called MIC is the lowest concentration found to suppress growth.

Some test systems named below: Escherichia coli K88; Klebsiella pneumoniae; Pseudomonas aeruginosa; Acinetobacter baumannii; Escherichia coli K99; Escherichia coli; Escherichia coli UB1005.
What all share (assay): ≥ marks a high value that may be exact or a test limit, other limits are often not marked, values filed in µg/mL are converted to µM
Experiment [1] relates to Escherichia coli NCTC 10418.
The subject of experiment [2] is Staphylococcus aureus NCTC 10788.
Experiment [3] has as its system Enterococcus faecalis NCTC 12697.
Experiment [4] relates to Candida albicans NCYC 1467.
Experiment [5] concerns Staphylococcus aureus NCTC 12493.
Experiment [6] relates to Pseudomonas aeruginosa ATCC 27853.
For experiment [7], the system named is Staphylococcus aureus ATCC 12493.
In experiment [8] the test system is Candida albicans NCPF 1467.
Experiment [9] concerns Salmonella enterica subsp. enterica serovar Pullorum C79-13.
In experiment [10] the test system is Escherichia coli ATCC 25922.
In experiment [11] the test system is Pseudomonas aeruginosa PAO1.
Experiment [12] deals with Salmonella enterica subsp. enterica serovar Typhimurium ATCC 14028.
In experiment [13] the test system is Salmonella enterica subsp. enterica serovar Typhimurium C77-31.
Experiment [14] concerns Pseudomonas aeruginosa CICC 21625.
In experiment [15] the test system is Pseudomonas aeruginosa CICC 21630.

Molecules are shown by their SMILES. Values after ≈ are worked out from the molar mass of the structure shown. Some results are limits rather than exact numbers.

For `CC[C@H](C)[C@H](NC(=O)CNC(=O)[C@H](CCC(N)=O)NC(=O)[C@@H](NC(=O)[C@H](C)NC(=O)[C@H](Cc1cnc[nH]1)NC(=O)[C@@H]1CCCN1C(=O)[C@@H](NC(=O)[C@H](CC(C)C)NC(=O)[C@@H]1CCCN1C(=O)[C@@H](NC(=O)[C@H](CC(C)C)NC(=O)[C@H](Cc1cnc[nH]1)NC(=O)[C@H](CCC(N)=O)NC(=O)[C@@H](NC(=O)[C@@H](N)Cc1ccccc1)[C@@H](C)CC)[C@@H](C)CC)[C@@H](C)CC)[C@@H](C)CC)C(=O)N[C@@H](CCCCN)C(=O)N[C@@H](CC(=O)O)C(=O)N[C@H](C(=O)N[C@@H](Cc1ccccc1)C(N)=O)[C@@H](C)CC` [FIQHLIPLIPHAIQGIKDIF], the MIC in [1] is ≥ 512 µM; in experiment [2], 22.6 µM (≈ 52.3 µg/mL); in experiment [3] it was ≥ 128 µM; in experiment [4], ≥ 90.5 µM; in experiment [5] it was ≥ 45.3 µM; in experiment [6] it was > 512 µM.
For the molecule `CC[C@H](C)[C@H](NC(=O)CNC(=O)[C@@H]1CCCN1C(=O)[C@H](CC(C)C)NC(=O)[C@@H](N)Cc1ccccc1)C(=O)N[C@@H](CC(C)C)C(=O)N[C@@H](CCCCN)C(=O)N[C@H](C(=O)N[C@@H](C)C(=O)N[C@@H](C)C(=O)N[C@@H](CCCCN)C(N)=O)C(C)C` [FLPGILKVAAK], the MIC was ≥ 512 µM in experiment [1]; ≥ 256 µM in [2]; ≥ 512 µM in [3]; ≥ 512 µM in experiment [7]; ≥ 512 µM in experiment [8]; > 512 µM in experiment [6].
As for `CC[C@H](C)[C@H](N)C(=O)N[C@@H](CCCCN)C(=O)N1CCC[C@H]1C(=O)N[C@H](C(=O)N[C@H](C(=O)N[C@@H](CCCCN)C(=O)N1CCC[C@H]1C(=O)N[C@H](C(=O)N[C@H](C(=O)N[C@@H](CCCCN)C(=O)N1CCC[C@H]1C(=O)N[C@H](C(=O)N[C@H](C(=O)N[C@@H](CCCCN)C(=O)N1CCC[C@H]1C(=O)N[C@H](C(=O)N[C@H](C(=O)N[C@@H](CCCCN)C(=O)N1CCC[C@H]1C(=O)N[C@H](C(N)=O)[C@@H](C)CC)[C@@H](C)CC)[C@@H](C)CC)[C@@H](C)CC)[C@@H](C)CC)[C@@H](C)CC)[C@@H](C)CC)[C@@H](C)CC)[C@@H](C)CC` [IKPIIKPIIKPIIKPIIKPI], the MIC against Escherichia coli K88 is ≥ 64 µM; against Klebsiella pneumoniae, > 64 µM; in experiment [9], ≥ 64 µM; in [10], > 64 µM; in experiment [11], > 64 µM; against Pseudomonas aeruginosa, > 64 µM. The MIC in the experiment on Acinetobacter baumannii is ≥ 64 µM; in experiment [12], > 64 µM; in the experiment with Escherichia coli K99, ≥ 64 µM; in the experiment on Escherichia coli, > 64 µM; in experiment [13] it was ≥ 64 µM; in experiment [14], ≥ 64 µM. Also, the MIC in experiment [15] is ≥ 64 µM; in experiment [6] it was > 64 µM; in the experiment with Escherichia coli UB1005 it was ≥ 64 µM.
In the case of `CC[C@H](C)[C@H](N)C(=O)N[C@@H](CCCN=C(N)N)C(=O)N1CCC[C@H]1C(=O)N[C@H](C(=O)N[C@H](C(=O)N[C@@H](CCCN=C(N)N)C(=O)N1CCC[C@H]1C(=O)N[C@H](C(=O)N[C@H](C(=O)N[C@@H](CCCN=C(N)N)C(=O)N1CCC[C@H]1C(=O)N[C@H](C(=O)N[C@H](C(=O)N[C@@H](CCCN=C(N)N)C(=O)N1CCC[C@H]1C(=O)N[C@H](C(=O)N[C@H](C(=O)N[C@@H](CCCN=C(N)N)C(=O)N1CCC[C@H]1C(=O)N[C@H](C(N)=O)[C@@H](C)CC)[C@@H](C)CC)[C@@H](C)CC)[C@@H](C)CC)[C@@H](C)CC)[C@@H](C)CC)[C@@H](C)CC)[C@@H](C)CC)[C@@H](C)CC` [IRPIIRPIIRPIIRPIIRPI], the MIC against Escherichia coli K88 was 1 µM (≈ 2.42 µg/mL); against Klebsiella pneumoniae, 8 µM (≈ 19.3 µg/mL); in experiment [9], 8 µM (≈ 19.3 µg/mL); in experiment [10], 8 µM (≈ 19.3 µg/mL); in experiment [11] it was 64 µM (≈ 155 µg/mL); with Pseudomonas aeruginosa it was > 64 µM. Besides, the MIC with Acinetobacter baumannii is 4 µM (≈ 9.66 µg/mL); in experiment [12] it was 8 µM (≈ 19.3 µg/mL); against Escherichia coli K99, 4 µM (≈ 9.66 µg/mL); in the experiment with Escherichia coli, 8 µM (≈ 19.3 µg/mL); in [13], 16 µM (≈ 38.6 µg/mL); in experiment [14] it was ≥ 64 µM. Further, the figures for the MIC (in experiment [15]; in [6]; with Escherichia coli UB1005) were ≥ 64 µM, 32 µM (≈ 77.3 µg/mL) and 4 µM (≈ 9.66 µg/mL), respectively.
With `CC(C)C[C@H](NC(=O)[C@@H]1CCCN1C(=O)[C@H](CCCCN)NC(=O)[C@H](CC(C)C)NC(=O)[C@H](CC(C)C)NC(=O)[C@@H]1CCCN1C(=O)[C@H](CCCCN)NC(=O)[C@H](CC(C)C)NC(=O)[C@H](CC(C)C)NC(=O)[C@@H]1CCCN1C(=O)[C@H](CCCCN)NC(=O)[C@H](CC(C)C)NC(=O)[C@H](CC(C)C)NC(=O)[C@@H]1CCCN1C(=O)[C@H](CCCCN)NC(=O)[C@H](CC(C)C)NC(=O)[C@H](CC(C)C)NC(=O)[C@@H]1CCCN1C(=O)[C@H](CCCCN)NC(=O)[C@H](CC(C)C)NC(=O)[C@H](CC(C)C)NC(=O)[C@@H]1CCCN1C(=O)[C@H](CCCCN)NC(=O)[C@H](CC(C)C)NC(=O)[C@H](CC(C)C)NC(=O)[C@@H]1CCCN1C(=O)[C@H](CCCCN)NC(=O)[C@@H](N)CC(C)C)C(N)=O` [LKPLLKPLLKPLLKPLLKPLLKPLLKPL], the MIC came to 0.5 µM (≈ 1.59 µg/mL) against Escherichia coli K88; 1 µM (≈ 3.18 µg/mL) against Klebsiella pneumoniae; 2 µM (≈ 6.36 µg/mL) in experiment [9]; 0.5 µM (≈ 1.59 µg/mL) in [10]; 1 µM (≈ 3.18 µg/mL) in experiment [11]; 5.66 µM (≈ 18 µg/mL) against Pseudomonas aeruginosa. Besides, the MIC in the experiment on Acinetobacter baumannii was determined as 1 µM (≈ 3.18 µg/mL); in experiment [12], 1 µM (≈ 3.18 µg/mL); in the experiment with Escherichia coli K99, 1 µM (≈ 3.18 µg/mL); in the experiment on Escherichia coli, 2 µM (≈ 6.36 µg/mL); in [13], 2 µM (≈ 6.36 µg/mL); in experiment [14], 8 µM (≈ 25.4 µg/mL). In addition, the values for the MIC (in [15]; in [6]; in the experiment on Escherichia coli UB1005) were 2 µM (≈ 6.36 µg/mL), 2 µM (≈ 6.36 µg/mL) and 1 µM (≈ 3.18 µg/mL), respectively.
On to `CC(C)C[C@H](NC(=O)[C@@H]1CCCN1C(=O)[C@H](CCCCN)NC(=O)[C@H](CC(C)C)NC(=O)[C@H](CC(C)C)NC(=O)[C@@H]1CCCN1C(=O)[C@H](CCCCN)NC(=O)[C@H](CC(C)C)NC(=O)[C@H](CC(C)C)NC(=O)[C@@H]1CCCN1C(=O)[C@H](CCCCN)NC(=O)[C@H](CC(C)C)NC(=O)[C@H](CC(C)C)NC(=O)[C@@H]1CCCN1C(=O)[C@H](CCCCN)NC(=O)[C@H](CC(C)C)NC(=O)[C@H](CC(C)C)NC(=O)[C@@H]1CCCN1C(=O)[C@H](CCCCN)NC(=O)[C@H](CC(C)C)NC(=O)[C@H](CC(C)C)NC(=O)[C@@H]1CCCN1C(=O)[C@H](CCCCN)NC(=O)[C@@H](N)CC(C)C)C(N)=O` [LKPLLKPLLKPLLKPLLKPLLKPL], for which the MIC worked out at 1 µM (≈ 2.73 µg/mL) against Escherichia coli K88; 8 µM (≈ 21.8 µg/mL) against Klebsiella pneumoniae; 4 µM (≈ 10.9 µg/mL) in experiment [9]; 1 µM (≈ 2.73 µg/mL) in experiment [10]; 4 µM (≈ 10.9 µg/mL) in experiment [11]; 45.3 µM (≈ 123 µg/mL) against Pseudomonas aeruginosa. In addition, the MIC against Acinetobacter baumannii was 4 µM (≈ 10.9 µg/mL); in experiment [12] it was 4 µM (≈ 10.9 µg/mL); in the experiment with Escherichia coli K99, 2 µM (≈ 5.45 µg/mL); against Escherichia coli, 2 µM (≈ 5.45 µg/mL); in [13] it was 8 µM (≈ 21.8 µg/mL); in experiment [14] it was ≥ 64 µM. In addition, the MIC in experiment [15] was ≥ 32 µM; in experiment [6], 4 µM (≈ 10.9 µg/mL); in the experiment on Escherichia coli UB1005 it was 2 µM (≈ 5.45 µg/mL).
Turning to `CC(C)C[C@H](NC(=O)[C@H](C)NC(=O)[C@H](C)NC(=O)[C@H](CC(C)C)NC(=O)[C@H](CC(N)=O)NC(=O)[C@@H](NC(=O)[C@@H](NC(=O)[C@H](CC(C)C)NC(=O)[C@H](CCCCN)NC(=O)[C@H](CCCCN)NC(=O)[C@@H](NC(=O)[C@@H](NC(=O)[C@@H](NC(=O)[C@H](CC(C)C)NC(=O)[C@H](Cc1ccccc1)NC(=O)[C@@H](N)CO)[C@@H](C)O)[C@@H](C)O)C(C)C)C(C)C)[C@@H](C)O)C(N)=O` [SFLTTVKKLVTNLAAL], the MIC in experiment [1] was 16 µM (≈ 27.5 µg/mL); in [2] it was 8 µM (≈ 13.7 µg/mL); in experiment [3], ≥ 32 µM; in [7] it was 16 µM (≈ 27.5 µg/mL); in experiment [8] it was 16 µM (≈ 27.5 µg/mL); in experiment [6], 64 µM (≈ 110 µg/mL).
